Source: patent US5726179A, “Muscarinic agonists” (The University of Toledo, priority 1996, dated 1998)
Counter-ions that a name gives are not always drawn.

Experiments:
muscarinic receptors [1] = experiment: PI cortex: agonist activity at muscarinic receptors in rat central nervous system; format: biochemical; details: mean from one to three experiments, each in triplicate
experimental animals = details: background, cited from earlier work; for reverse cognitive impairments in experimental animals: natural product agonist ligands
M2 receptors = details: background; cited from earlier work
M3 receptors = details: background; cited from earlier work
muscarinic receptors [2] = experiment: Binding affinity at muscarinic receptors in rat central nervous system, ligand [3H]-QNB; details: rat CNS; mean from one to three experiments, each in triplicate
Excerpt: Data represent the mean from one
to three experiments, each performed in triplicate.

## O=C(OCC#Cc1ccccc1)C1CN=CNC1 (stereo not drawn) [CDD-0189-A]
Muscarinic receptors [1]
  PI cortex (at 100 μM): 3 ± 8.2%

## CN1CCN(CC(=O)N2c3ccccc3C(=O)Nc3cccnc32)CC1 [pirenzepine]
Experimental animals; M1 antagonist
  produce memory impairments in experimental animals: produce memory impairments

## CC[C@@H]1C(=O)OC[C@@H]1Cc1cncn1C [pilocarpine]
Experimental animals
  reverse cognitive impairments in experimental animals: reverse cognitive impairments

## C#C/C(C)=C/COC(=O)C1CN=CNC1 (stereo not drawn) [CDD-0161-A, (trans)-5-(3-Methyl-2-penten-4-ynyloxycarbonyl)-1,4,5,6-tetrahydropyrimidine HCl]
Muscarinic receptors [1]
  PI cortex (at 100 μM): 35 ± 5.6%

## COC(=O)C1=CCCN(C)C1 [arecoline]
Experimental animals
  reverse cognitive impairments in experimental animals: reverse cognitive impairments

## C#CCCOC(=O)C1CN=CNC1 (stereo not drawn) [CDD-0195-A]
Muscarinic receptors [1]
  PI cortex (at 100 μM): 100 ± 15%

## CC#CCOC(=O)C1CN=CNC1.Cl (stereo not drawn) [CDD-0171-A, 5-(2-Butynyloxycarbonyl)-1,4,5,6-tetrahydropyrimidine HCl]
Muscarinic receptors [1]
  PI cortex (at 100 μM): 140%

## CCN(CC)CC1CCCCN1CC(=O)N1c2ccccc2C(=O)Nc2cccnc21 (stereo not drawn) [AF-DX 116]
M2 receptors
  selective antagonist for M2 receptors: selective antagonists

## O[Si](CCCN1CCCCC1)(c1ccc(F)cc1)C1CCCCC1 (stereo not drawn) [p-F-hexahydrosiladifenidol]
M3 receptors
  selective antagonist for M3 receptors: selective antagonists

## C#C/C(C)=C\COC(=O)C1CN=CNC1 (stereo not drawn) [CDD-0162-A, (cis)-5-(3-Methyl-2-penten-4-ynyloxycarbonyl)-1,4,5,6-tetrahydropyrimidine HCl]
Muscarinic receptors [1]
  PI cortex (at 100 μM): 50 ± 4.3%

## 5-(3-Methylpropynyloxycarbonyl)-1,4,5,6-tetrahydropyrimidine HCl [CDD-0177-A]
Muscarinic receptors [2]
  IC50: 45 µM
Muscarinic receptors [1]
  PI cortex (at 100 μM): 22 ± 3%
